Like-named read-outs stand apart in the source and are kept apart here.
Experiments:
KK leukemic cell line = assay: MTT assay; format: cell-based, human; settings: 48 h, read-out: MTT50
Method: (§1) All cell lines were assayed as asynchronously growing cells. Leukemic cell lines, OCI-AML-2, OCI-AML-3 (referred to hereafter as AML-2 and AML-3, respectively), NB-4, KK, B1, G2, and W1 were cultured in alpha-minimal essential medium (α-MEM) (Princess Margaret Hospital Media Services) supplemented with 10% fetal bovine serum (FBS) (Sigma, St. Louis, Mo.). Non-transformed, diploid fibroblast lines WI38 and IMR90, were cultured in α-MEM and MEM F-15, respectively supplemented with 10% FBS. Media for IMR90 cells was also supplemented with 1.5 g/L bicarbonate and 1 mM pyruvate. Breast tumour cell lines, MDA-231, SK-BR-3, MCF-7, ZR-751, and melanoma tumour cell lines, WM9, WM983, WM793, 1232, were grown in α-MEM supplemented with 10% fetal bovine serum. Prostate tumour cell lines, DU145 and PC-3, were grown in RPMI 1640 media supplemented with 10% FBS. All cell lines were cultured in the presence of penicillin/streptomycin. Mononucleated cells were isolated from normal bone marrow using Ficoll hypaque and then T-cell depleted. T-cell depletion was performed by incubating the mononucleated bone marrow cells in α-MEM at a concentration of 2×10^7 cells/mL with 10% absor FBS and 10% (v/v) sheep red blood cells for 4 to 16 h. Absor FBS was prepared beforehand by heating FBS at 56° C. for 1 h, incubating with sheep red blood cells at 0.5% (v/v) for 1 h and then filtering the FBS with a […]. The T-cell depleted, mononucleated cells were recovered using Ficoll hypaque and were maintained in α-MEM supplemented with 20% FBS and 10% 5637 ? nditioned media. 5637 conditioned media ? s previously harvested from confluent 5637 cells after a 3 day incubation. Normal bone marrow from bone marrow transplant donor was collected following informed consent according to institutional guidelines.
(§2) Approximately 20 mg of each compound was dissolved in 5 mL of ACS grade acetone (Sigma) using a 5 mL volumetric flask. Stock solutions of the compounds were stored in the dark at −20° C. Compounds were diluted prior to each experiment.
(§3) Adherent cells were seeded at 67×10^3 cells/mL in a 96 well plate (Falcon, Mississauga, Ontario) the day prior to exposure to compound. Suspension cells were seeded at 27×10^4 cells/mL in a 96 well plate the day of exposure to compound. Mononucleated, T-cell depleted normal bone marrow cells were seeded at 67×10^4 cells/mL in a 96 well plate the day of exposure to compound. Compounds and solvent control were added to cells and assayed in triplicate or sextuplet. Following 48 h of incubation at 37° C. with 5% CO2, 40 μL of a 5 mg/mL solution of 3-[4,5-dimethylthiazol-2-yl]-2,5-diphenyltetrazolium bromide (MTT) substrate (Sigma) in Dulbecco's phosphate-buffered saline (D-PBS) was added. After 4 h of incubation at 37° C. with 5% CO2, the resulting violet formazan precipitate was solubilized by the addition of 80 μL of a 0.01 M HCI, 10% sodium dodecyl sulfate (SDS; Sigma) solution overnight at 37° C. with 5% CO2. The plates were then analyzed using the BioRad Benchmark Microplate Reader (BioRad Laboratories, Hercules, Calif.) at 570 nm to determine the optical density of the samples. MTT data was analyzed using Prism 3.0 (GraphPad Software, Inc., San Diego, Calif.) by the Chou-Talalay method. MTT graphs shown are a representative experiment.
(§4) Adherent cells were seeded at 67×10^3 cells/mL in a 96 well plate (Falcon, Mississauga, Ontario) the day prior to exposure to compound. Suspension cells were seeded at 27×10^4 cells/mL in a 96 well plate the day of exposure to compound. Mononucleated, T-cell depleted normal bone marrow cells were seeded at 67×10^4 cells/mL in a 96 well plate the day of exposure to compound. Compounds and solvent control were added to cells and assayed in triplicate or sextuplet. […]

AML-3 leukemic cell line [1] = assay: MTT assay; format: cell-based, human
Method: as §1, §2, §3, §4

[2] = system: WI38 non-transformed diploid fibroblasts; assay: MTT assay; format: cell-based, human; settings: for IC50: read-out: MTT50; for Viability of non-transformed human WI38 fibroblasts following exposure: in words
Method: as §1, §2, §3, §4

[3] = system: Normal bone marrow (mononucleated, T-cell depleted); assay: MTT assay; format: cell-based; settings: 48 h, read-out: MTT50
Method: as §1, §2, §3, §4

AML-3 leukemic cell line [4] = assay: Fixed propidium iodide staining, flow cytometry; format: cell-based, human; settings: 48 h
Method: (§5) Adherent cell lines were plated at 35×10^4 cells/60 cm^2 dish the day before exposure to compound. Suspension cells were seeded at 25×10^4 cells/mL in a 6 well dish (Falcon) the day of exposure to compound. Mononucleated, T-cell depleted normal bone marrow cells were seeded at 50×10^4 cells/mL in a 6 well dish the day of exposure to compound. Cells were exposed to solvent control or approximate MTT50 and MTT30 concentrations of the compound. After 48 h of exposure to the compound, cells were harvested, fixed in 80% ethanol for 1 h on ice and labeled with 50 μg/mL propidium iodide (Sigma). Approximately 10^6 cells were analyzed using a XL-MCL flow cytometer (Coulter Corporation, Miami, Fla.) and a FACScalibar cytometer (Becton Dickinson, San Jose, Calif.). Profiles shown are a representative.
as §5, with “cm2” for “cm^2”, “concentrations.” for “concentrations of the compound.”, “representative. Cell viability counts and Pi staining were performed as previously described (Dimitroulakos, J, Nohynek, D, Backway, K L, Hedley, D W, Yeger, H, Freedman, M H, Minden, M D and Penn, L Z: Increased sensitivity of acute myeloid leukemias to lovastatin-induced apoptosis: A potential therapeutic approach. Blood 93: 1308-18, 1999).” for “representative.”

[5] = Homo sapiens, AML3, 48 h, AML-3, read-out: MTT50
[6] = Homo sapiens, WI-38, 48 h, WI38 (normal), 48 h

CSCSCS(C)(=O)=O [B]
IC50 (KK leukemic cell line; KK): > 134 µM
IC50 (AML-3 leukemic cell line [1]; AML-3, 48 h, read-out: MTT50): > 134 µM
IC50 ([2]; WI38 (normal), 48 h): > 134 µM
Viability of non-transformed human WI38 fibroblasts following exposure [2]: not affected
IC50 ([3]; Normal bone marrow): > 134 µM
% G2/M (Fixed PI) (AML-3 leukemic cell line [4]; dose 107 uM (20 ug/mL)): 13.4%
% pre-G1 (Fixed PI) (AML-3 leukemic cell line [4]; dose 107 uM (20 ug/mL)): 0.3%

CS(C)(=O)=O [Compound A, dimethyl sulfone]
IC50 (KK leukemic cell line; KK): > 265 µM
IC50 (AML-3 leukemic cell line [1]; AML-3, 48 h, read-out: MTT50): > 265 µM
IC50 ([2]; WI38 (normal), 48 h): > 265 µM
Viability of non-transformed human WI38 fibroblasts following exposure [2]: not affected
IC50 ([3]; Normal bone marrow): > 265 µM
% pre-G1 (Fixed PI) (AML-3 leukemic cell line [4]; dose 212 uM (20 ug/mL)): 0.1%

CSSCS(=O)(=O)c1ccc(C)cc1 [Compound C, α-p-toluenesulfonyl dimethyl disulphide]
IC50 (KK leukemic cell line; KK): 31.4 µM
IC50 (AML-3 leukemic cell line [1]; AML-3, 48 h, read-out: MTT50): 16.9 µM
IC50 ([2]; WI38 (normal), 48 h): 89 µM
Viability of non-transformed human WI38 fibroblasts following exposure [2]: decreased
IC50 ([3]; Normal bone marrow): 20.9 µM
% G2/M (Fixed PI) (AML-3 leukemic cell line [4]; dose 20.2 uM (10 ug/mL)): 11.1%
% pre-G1 (Fixed PI) (AML-3 leukemic cell line [4]; dose 20.2 uM (10 ug/mL)): 10.7%

CSCSSC [Compound N, 2,3,5-trithiahexane]
IC50 (KK leukemic cell line; Homo sapiens): 65.2 µM
IC50 (AML-3 leukemic cell line [1]; Homo sapiens, AML3, 48 h, read-out: MTT50, AML-3): 51.1 µM
IC50 (AML-3 leukemic cell line [1]; read-out: MTT50, AML-3, 48 h): 73.4 µM
IC50 ([2]; Homo sapiens, WI-38, 48 h): > 100 µM
IC50 ([3]; T-cell): > 100 µM
% G2 increase (Fixed PI) (AML-3 leukemic cell line [4]; dose 50 uM): +17%
% pre-G1 (Fixed PI) (AML-3 leukemic cell line [4]; dose 50 uM): 17%
% G2 increase (Fixed PI) (AML-3 leukemic cell line [4]; dose 150 uM): +14%
% pre-G1 (Fixed PI) (AML-3 leukemic cell line [4]; dose 150 uM): 35%

CSSCC(=O)c1ccccc1 [Compound P, phenacyl methyl disulphide]
IC50 (KK leukemic cell line; Homo sapiens, KK): 65.2 µM
IC50 (AML-3 leukemic cell line [1]; [5]): 51.1 µM
IC50 [2, 6]: > 100 µM
IC50 ([3]; T-cell, Normal bone marrow): > 100 µM
% pre-G1 (Fixed PI) (AML-3 leukemic cell line [4]; dose 50 uM): 7%
% pre-G1 (Fixed PI) (AML-3 leukemic cell line [4]; dose 150 uM): 66%

CCC(=O)OCSSc1ccccc1 [Compound Q, 1-phenyl-1,2-dithiapropyl propionate]
IC50 (KK leukemic cell line; Homo sapiens, KK): 23.7 µM
IC50 (AML-3 leukemic cell line [1]; [5]): 22.5 µM
IC50 [2, 6]: > 100 µM
IC50 ([3]; T-cell, Normal bone marrow): > 100 µM
% G2 increase (Fixed PI) (AML-3 leukemic cell line [4]; dose 20 uM): −5%
% pre-G1 (Fixed PI) (AML-3 leukemic cell line [4]; dose 20 uM): 10%
% G2 increase (Fixed PI) (AML-3 leukemic cell line [4]; dose 40 uM): −9%
% pre-G1 (Fixed PI) (AML-3 leukemic cell line [4]; dose 40 uM): 42%

c1ccc(SSc2ccccc2)cc1 [D, diphenyl disulphide]
IC50 (KK leukemic cell line; Homo sapiens, KK): 12.8 µM
IC50 (AML-3 leukemic cell line [1]; [5]): 10.1 µM
IC50 [2, 6]: 45.3 µM
Viability of non-transformed human WI38 fibroblasts following exposure [2]: decreased
IC50 ([3]; T-cell, Normal bone marrow): 19.1 µM
% pre-G1 (Fixed PI) (AML-3 leukemic cell line [4]; dose 91.6 uM (20 ug/mL)): 24.1%

CS(=O)(=O)CSSc1ccccc1 [E, 5-phenyl-2,4,5-trithiapentane 2,2-dioxide]
IC50 (KK leukemic cell line; Homo sapiens, KK): 17.5 µM
IC50 (AML-3 leukemic cell line [1]; [5]): 15.4 µM
IC50 [2, 6]: 45.2 µM
Viability of non-transformed human WI38 fibroblasts following exposure [2]: decreased
IC50 ([3]; T-cell, Normal bone marrow): 21.9 µM
% pre-G1 (Fixed PI) (AML-3 leukemic cell line [4]; dose 85.3 uM (20 ug/mL)): 24.5%

CSSCCS(C)(=O)=O [F, 2,3,6-trithiaheptane 6,6,-dioxide]
IC50 (KK leukemic cell line; KK): 93.4 µM
IC50 (AML-3 leukemic cell line [1]; AML-3, 48 h, read-out: MTT50): 44 µM
IC50 ([2]; WI38 (normal), 48 h): > 100 µM
Viability of non-transformed human WI38 fibroblasts following exposure [2]: not affected
IC50 ([3]; Normal bone marrow): 116 µM
% G2/M (Fixed PI) (AML-3 leukemic cell line [4]; dose 45.8 uM (10 ug/mL)): 34.1%
% pre-G1 (Fixed PI) (AML-3 leukemic cell line [4]; dose 45.8 uM (10 ug/mL)): 5.1%

CS(=O)(=O)CSCS(C)(=O)=O [G, 2,4,6-trithiaheptane 2,2,6,6-tetraoxide]
IC50 (KK leukemic cell line; Homo sapiens, KK): 114 µM
IC50 (AML-3 leukemic cell line [1]; [5]): 114 µM
IC50 [2, 6]: 114 µM
Viability of non-transformed human WI38 fibroblasts following exposure [2]: not affected
IC50 ([3]; T-cell, Normal bone marrow): 114 µM
% G2/M (Fixed PI) (AML-3 leukemic cell line [4]; dose 45.8 uM (10 ug/mL)): 13.5%
% pre-G1 (Fixed PI) (AML-3 leukemic cell line [4]; dose 45.8 uM (10 ug/mL)): 0.3%

COC(=O)CSSC [H, methyl 3,4-dithiopentanoate]
IC50 (KK leukemic cell line; KK): 110 µM
IC50 (AML-3 leukemic cell line [1]; AML-3, 48 h, read-out: MTT50): 93.4 µM
IC50 ([2]; WI38 (normal), 48 h): > 164 µM
Viability of non-transformed human WI38 fibroblasts following exposure [2]: not affected
IC50 ([3]; Normal bone marrow): 366 µM
% pre-G1 (Fixed PI) (AML-3 leukemic cell line [4]; dose 65.7 uM (10 ug/mL)): 3.6%

CSSCOC(C)=O [I, 2,3-dithiabutyl acetate]
IC50 (KK leukemic cell line; Homo sapiens, KK): 31.5 µM
IC50 (AML-3 leukemic cell line [1]; [5]): 31.5 µM
IC50 [2, 6]: 76.9 µM
Viability of non-transformed human WI38 fibroblasts following exposure [2]: decreased
IC50 ([3]; T-cell, Normal bone marrow): 32.8 µM
% pre-G1 (Fixed PI) (AML-3 leukemic cell line [4]; dose 232.8 uM (5 ug/mL)): 23.6%

CSSc1ccc([N+](=O)[O-])cc1 [M, methyl p-nitrophenyl disulphide]
IC50 (KK leukemic cell line; Homo sapiens, KK): 10.5 µM
IC50 (AML-3 leukemic cell line [1]; AML-3, 48 h, read-out: MTT50): 8.53 µM
IC50 (AML-3 leukemic cell line [1]; [5]): 15 µM
IC50 [2, 6]: 13.8 µM
IC50 ([2]; WI38 (normal), 48 h): 17.4 µM
IC50 ([3]; T-cell, Normal bone marrow): 22.6 µM
% pre-G1 (Fixed PI) (AML-3 leukemic cell line [4]; dose 20 uM): 34%
% pre-G1 (Fixed PI) (AML-3 leukemic cell line [4]; dose 40 uM): 56%

— US20030220524A1, “Sulfur containing compounds” (priority 2000, published 2003)
